The values below come from PubChem BioAssay AID304 (DTP/NCI, 2004).

For this test, the system named is Lymphosarcoma Mecca ip in C3AKF1 mice, survival T/C%. Briefly: NCI In Vivo Anticancer Drug Screen. Data for tumor model Lymphosarcoma Mecca (intraperitoneal) in C3AKF1 (CHKRF1) mice. Conditions: endpoint: survival time, mean or median, higher = longer survival. As to the method: The antitumor activity of compounds was measured in mice bearing transplantable tumors. Survival or tumor size were measured and the results are expressed as the measurement made in the treated group (T) divided by the measurement made in the vehicle treated control group (C). The tumor model used in this assay is Lymphosarcoma Mecca (intraperitoneal) in C3AKF1 (CHKRF1) mice

Where [1] appears, read: dose: 1.0 mg/kg/injection, schedule: Q01DX010 (ip), vehicle: saline.
Setting [2] is: dose: 2.0 mg/kg/injection, schedule: Q01DX010 (ip), vehicle: saline.
Setting [3] is: dose: 4.0 mg/kg/injection, schedule: Q01DX010 (ip), vehicle: saline.
[4] abbreviates: dose: 25.0 mg/kg/injection, schedule: Q01DX010 (ip), vehicle: saline.
The mark [5] stands for this setting: dose: 50.0 mg/kg/injection, schedule: Q01DX010 (ip), vehicle: saline.
Setting [6] is: dose: 100.0 mg/kg/injection, schedule: Q01DX010 (ip), vehicle: saline.
Setting [7] is: dose: 200.0 mg/kg/injection, schedule: Q01DX010 (ip), vehicle: saline.
The mark [8] stands for this setting: dose: 400.0 mg/kg/injection, schedule: Q01DX010 (ip), vehicle: saline.
Setting [9] is: dose: 10.0 mg/kg/injection, schedule: Q01DX010 (ip), vehicle: saline.
The mark [10] stands for this setting: dose: 20.0 mg/kg/injection, schedule: Q01DX010 (ip), vehicle: saline.
Where [11] appears, read: dose: 40.0 mg/kg/injection, schedule: Q01DX010 (ip), vehicle: saline.
Setting [12] is: dose: 80.0 mg/kg/injection, schedule: Q01DX010 (ip), vehicle: saline.
[13] abbreviates: dose: 8.0 mg/kg/injection, schedule: Q01DX010 (ip), vehicle: saline.
The mark [14] stands for this setting: dose: 16.0 mg/kg/injection, schedule: Q01DX010 (ip), vehicle: saline.
[15] abbreviates: dose: 5.0 mg/kg/injection, schedule: Q01DX010 (ip), vehicle: saline.
Setting [16] is: dose: 125.0 mg/kg/injection, schedule: Q01DX010 (ip), vehicle: saline.
The mark [17] stands for this setting: dose: 1.25 mg/kg/injection, schedule: Q01DX010 (ip), vehicle: saline.
Setting [18] is: dose: 2.5 mg/kg/injection, schedule: Q01DX010 (ip), vehicle: saline.
Where [19] appears, read: dose: 3.13 mg/kg/injection, schedule: Q01DX010 (ip), vehicle: saline.
The mark [20] stands for this setting: dose: 6.25 mg/kg/injection, schedule: Q01DX010 (ip), vehicle: saline.
Where [21] appears, read: dose: 12.5 mg/kg/injection, schedule: Q01DX010 (ip), vehicle: saline.

“And” between values parts separate entries of the source, which are not always exact repeats. Equal entries are not always repeated. Toxic doses and inconclusive results are not listed.

Take `N#CCSc1ncnc2nc[nH]c12`: the T/C is 95 % of control and 119 % of control (dose: 15.0 mg/kg/injection, schedule: Q01DX010 (ip), vehicle: saline); 90 % of control and 95 % of control (dose: 30.0 mg/kg/injection, schedule: Q01DX010 (ip), vehicle: saline); 90 % of control and 95 % of control (dose: 60.0 mg/kg/injection, schedule: Q01DX010 (ip), vehicle: saline); 95 % of control (dose: 120.0 mg/kg/injection, schedule: Q01DX010 (ip), vehicle: saline).

Turning to `COCCCNP(=S)(N1CC1)N1CC1`, the T/C runs as follows: (dose: 0.5 mg/kg/injection, schedule: Q01DX010 (ip), vehicle: saline) 100 % of control; under setting [1], 100 % of control; under setting [2], 100 % of control; under setting [3], 105 % of control.

Turning to `CO[C@@H]1[C@@H](OC2OC(C)C(OC3CC(C)(O)C(OC(=O)CC(C)C)C(C)O3)C(N(C)C)C2O)[C@@H](CC=O)C[C@@H](C)C(=O)/C=C/C2O[C@H]2C[C@@H](C)OC(=O)C[C@H]1OC(C)=O` (some centres undefined), the T/C is 90 % of control (dose: 4.7 mg/kg/injection, schedule: Q01DX010 (ip), vehicle: saline); 100 % of control (dose: 9.4 mg/kg/injection, schedule: Q01DX010 (ip), vehicle: saline); 90 % of control (dose: 18.8 mg/kg/injection, schedule: Q01DX010 (ip), vehicle: saline); 90 % of control and 95 % of control (dose: 37.5 mg/kg/injection, schedule: Q01DX010 (ip), vehicle: saline); 86 % of control (dose: 75.0 mg/kg/injection, schedule: Q01DX010 (ip), vehicle: saline).

As for `CS(=O)(=O)OCC(O)C(O)C(O)C(O)COS(C)(=O)=O` (centres undefined), the T/C is 111 % of control under setting [4]; 100 % of control and 111 % of control under setting [5]; 100 % of control and 116 % of control under setting [6]; 100 % of control and 122 % of control under setting [7]; 110 % of control under setting [8].

For `COc1cc(-c2ccc(Nc3ccccc3C(=O)O)c(OC)c2)ccc1N`, the T/C reads like this: under setting [9], 105 % of control and 110 % of control; under setting [10], 111 % of control and 115 % of control; under setting [11], 122 % of control; under setting [12], 111 % of control.

Turning to `CC(CCC(C)OS(C)(=O)=O)OS(C)(=O)=O` (centres undefined), the T/C under setting [3] is 109 % of control; the T/C under setting [13] was 100 % of control; the T/C under setting [14] was 114 % of control; the T/C (dose: 32.0 mg/kg/injection, schedule: Q01DX010 (ip), vehicle: saline) is 95 % of control.

Turning to `N#[N+]c1cnc([O-])[nH]c1=O`, the T/C under setting [15] is 157 % of control.

Consider `O=C(Nc1ccc(C2=NCCN2)cc1)c1cccc(C(=O)Nc2ccc(C3=NCCN3)cc2)c1`, for which the T/C is 113 % of control under setting [13]; 110 % of control and 205 % of control under setting [14]; 175 % of control (dose: 64.0 mg/kg/injection, schedule: Q01DX010 (ip), vehicle: saline).

Regarding `CCOC(N)=O`, the T/C reads like this: under setting [16], 90 % of control and 104 % of control; (dose: 250.0 mg/kg/injection, schedule: Q01DX010 (ip), vehicle: saline) 86 % of control and 95 % of control; (dose: 500.0 mg/kg/injection, schedule: Q01DX010 (ip), vehicle: saline) 95 % of control and 122 % of control.

On to `CC1CN1P(=S)(N1CC1C)N1CC1C` (centres undefined), for which the T/C runs as follows: under setting [17], 100 % of control; under setting [18], 100 % of control and 105 % of control; under setting [15], 100 % of control; under setting [9], 100 % of control and 105 % of control; under setting [10], 100 % of control.

As for `N=C(N)c1ccc(Nc2ccc(C(=N)N)cc2)cc1`, the T/C (dose: 3.0 mg/kg/injection, schedule: Q01DX010 (ip), vehicle: saline) was 100 % of control; the T/C (dose: 6.0 mg/kg/injection, schedule: Q01DX010 (ip), vehicle: saline) is 90 % of control and 100 % of control; the T/C (dose: 12.0 mg/kg/injection, schedule: Q01DX010 (ip), vehicle: saline) was 100 % of control and 110 % of control; the T/C (dose: 24.0 mg/kg/injection, schedule: Q01DX010 (ip), vehicle: saline) is 100 % of control.

For `Cn1c(N)nc2nc[nH]c2c1=S`, the T/C is 100 % of control and 105 % of control under setting [9]; 100 % of control and 105 % of control under setting [10]; 110 % of control under setting [11]; 100 % of control under setting [12].

For the molecule `CC[n+]1c(-c2ccccc2)c2cc(N)ccc2c2ccc(N)cc21`, the T/C is, setting by setting: under setting [17], 100 % of control; under setting [18], 100 % of control and 120 % of control; under setting [15], 100 % of control; under setting [9], 105 % of control and 120 % of control; under setting [10], 105 % of control.

Turning to `NC(Cc1ccc(N(CCCl)CCCl)cc1)C(=O)O` (centres undefined), the T/C was 188 % of control and 190 % of control under setting [2]; 165 % of control and 224 % of control under setting [3]; 160 % of control under setting [15]; 168 % of control under setting [13]; 105 % of control and 110 % of control under setting [9]; 100 % of control and 108 % of control under setting [14]. Also, the T/C under setting [10] is 95 % of control.

`O=c1[nH]c(=O)n(C2CC(O)C(CO)O2)cc1F` (centres undefined): the T/C under setting [15] was 100 % of control; the T/C under setting [9] is 109 % of control and 115 % of control; the T/C under setting [10] was 113 % of control and 120 % of control; the T/C under setting [12] was 159 % of control.

In the case of `CN(C)/N=N/c1nc[nH]c1C(N)=O`, the T/C under setting [8] is 155 % of control.

As for `CC(=O)O[C@]1(C(C)=O)CC[C@H]2[C@@H]3C[C@H](C)C4=CC(=O)C=C[C@]4(C)[C@@]3(F)[C@@H](O)C[C@@]21C`, the T/C was 105 % of control (dose: 12.5 mg/kg/injection, schedule: Q01DX010 (sc), vehicle: steriod suspending solution); 100 % of control (dose: 25.0 mg/kg/injection, schedule: Q01DX010 (sc), vehicle: steriod suspending solution); 100 % of control (dose: 50.0 mg/kg/injection, schedule: Q01DX010 (sc), vehicle: steriod suspending solution); 90 % of control (dose: 100.0 mg/kg/injection, schedule: Q01DX010 (sc), vehicle: steriod suspending solution).

`Nc1nc(=S)c2ncn(C3OC(CO)C(O)C3O)c2[nH]1` (centres undefined): the T/C is, setting by setting: under setting [1], 115 % of control and 120 % of control; under setting [2], 115 % of control; under setting [3], 105 % of control and 115 % of control; under setting [13], 90 % of control and 105 % of control.

Take `O=C(O)c1[nH]c(=O)[nH]c(=O)c1F`: the T/C was 100 % of control under setting [17]; 88 % of control and 122 % of control under setting [18]; 122 % of control under setting [10].

Take `Nc1nc2n[nH]nc2c(=O)[nH]1`: the T/C is, setting by setting: (dose: 25.0 mg/kg/injection, schedule: Q01DX010 (ip), vehicle: alkali diluted with saline) 115 % of control; (dose: 50.0 mg/kg/injection, schedule: Q01DX010 (ip), vehicle: alkali diluted with saline) 88 % of control and 110 % of control.

`CN(C)c1ccc(/C=C/c2ccnc3ccccc23)cc1`: the T/C is, setting by setting: under setting [15], 100 % of control and 111 % of control; under setting [9], 94 % of control; under setting [10], 94 % of control and 100 % of control; under setting [11], 94 % of control.

Regarding `N=[N+]=CC(=O)OCC(N)C(=O)O` (centres undefined), the T/C reads like this: under setting [19], 120 % of control and 124 % of control; under setting [20], 100 % of control; under setting [21], 116 % of control; under setting [4], 105 % of control.

With `CSc1ncnc2nc[nH]c12`, the T/C reads like this: under setting [4], 109 % of control; under setting [5], 95 % of control and 118 % of control; under setting [6], 95 % of control and 113 % of control; under setting [7], 104 % of control.

With `C[C@H]1C(=O)O[C@@H]2CCN3CC=C(COC(=O)[C@](C)(O)[C@@]1(C)O)[C@H]23`, the T/C reads like this: under setting [19], 109 % of control and 115 % of control; under setting [20], 95 % of control and 109 % of control; under setting [21], 105 % of control and 118 % of control; under setting [4], 109 % of control and 115 % of control.

`CCn1cnc2c(=S)nc[nH]c21`: the T/C is 100 % of control (dose: 15.6 mg/kg/injection, schedule: Q01DX010 (ip), vehicle: saline); 100 % of control (dose: 31.3 mg/kg/injection, schedule: Q01DX010 (ip), vehicle: saline); 90 % of control (dose: 62.5 mg/kg/injection, schedule: Q01DX010 (ip), vehicle: saline); 100 % of control under setting [16].

Take `O=NN(CCCl)C(=O)NCCCl`: the T/C was 275 % of control and 303 % of control under setting [20]; 151 % of control and 155 % of control under setting [21]; 92 % of control and 115 % of control under setting [4].
